Experimental data: patent US7208154B2, “Methods and compositions for the treatment of MHC-associated conditions” (Regents of the University of Michigan, priority 2002, dated 2007)
No end group written: not given here.

Assays:
[1] = test system: human fibroblastoid line M1 cells; conditions: for Inhibition of cAMP-mediated (2CA-induced) DNA repair induction: M1 cells preincubated overnight with 50 μg/ml soluble peptide
Excerpt: To further determine the signaling pathways involved in DNA repair induction, the inventors used the Trevigen CometAssay™ kit (Cat. No. 4250-50-K). The CometAssay is a single-cell gel electrophoresis method that can measure a variety of types of DNA damage, and repair of damage, in individual cells. The assay is based on the alkaline lysis of labile DNA at sites of damage. The unwound, relaxed DNA is able to migrate out of the cell during electrophoresis and can be visualized by SYBR Green staining.
(§1) To quantify DNA damage, cells were collected and three parallel samples were processed (a negative control, a DNA damage control (H2O2) and a sample subjected to H2O2 following exposure to various modulators of the cAMP signaling pathway). Cells are then washed in PBS. The washed cells are combined with molten low-melting agarose (Trevigen Cat. No. 4250-50-02) and transferred to a CometSlide™ (Trevigen Cat. No. 4250-100-03). The slides are immersed in lysis buffer for 30 min, on ice, in the dark. The slides are then treated with alkali buffer for 20 to 60 min at room temperature in the dark. The slides are then electrophoresed in buffer for 10 min at 20 volts, then fixed in methanol and ethanol. The slides are then stained with SYBR green (Trevigen Cat. No. 4250-50-05) solution and fluorescently imaged with a Diagnostic Instruments digitized camera, mounted on a Nikon Eclipse E400 microscope. Scion Image software is used to quantitate the comet tail intensity. Each data point is derived from tail fluorescent intensity determination in 50–100 individual cells. Data is presented as % DNA repair (the percent decrement in tail fluorescence intensity in agonist or antagonist-treated cells, relative to the intensity recorded in cells treated with H2O2 only)±SEM. (R.U.s)
(§2) To directly examine that possibility, cells were incubated overnight with synthetic peptides corresponding to the region contained within amino acids 65–79 and their ability to mount DNA repair activity in response to cAMP-elevating agents was determined. M1 cells were preincubated overnight with 50 μg/ml of synthetic peptides corresponding to the region surrounding the third allelic hypervariable region (aa 65–79) of each of the following DRβ chains: *0401 (65–79*0401) [SEQ ID NO: 5], *0402 (65–79*0402) [SEQ ID NO: 7], *0403 (65–79*0403) [SEQ ID NO: 9] or *0404(65–79*0404) [SEQ ID NO: 10]. At the end of the preincubation, cells were collected, washed and 2CA-induced DNA repair was determined as above. Table 3 (above) lists the different third allelic hypervariable region peptides used in the entire study disclosed here.
A modified method as described previously by Auger et al. [Nature Med 2:306–310 1996] was used. Briefly, cyanogen bromide activated Speharose 4B (1.5 ml) was washed with 1 mM HCl and incubated with peptides in 0.1 M NaHCO3 and 0.5 M NaCl (pH 8) buffer overnight at 4° C. For each peptide, 5 mg was used per milliliter of Sepharose. Free Sepharose groups were blocked with 0.2 M glycine (pH 8) for 2 hours at room temperature. Columns were washed at 4° C. with the following buffers: 0.1 M NaHCO3, 0.5 M NaCl (pH 8) buffer, then 0.5 M CH3COONa (pH 4) buffer and finally PBS at pH 7.5. M1 cells were plated at a density of 0.5×10^6 cells per well (6 well plate) in 10% FBS DMEM medium until 70–80% confluence. Prior to incubation with peptides, cultures were changed to serum-free DMEM medium, then evenly overlaid with 50 μg bead conjugated peptides, and incubated for the indicated period. Soluble peptides were added overnight to M1 cells at a concentration of 50 μg/ml.

mouse cells = assay: cAMP-mediated DNA repair induction in mouse cells (data not shown); type: cell-based
Protocol: as §2

[2] = molecular target: T1, purified recombinant calreticulin (Homo sapiens, UniProt P27797); assay: Surface plasmon resonance, peptides immobilized on CM5 chip, calreticulin in flow phase; type: binding; conditions: peptide immobilized on Biacore sensor chip CM5
T1 sequence (P27797 18-417): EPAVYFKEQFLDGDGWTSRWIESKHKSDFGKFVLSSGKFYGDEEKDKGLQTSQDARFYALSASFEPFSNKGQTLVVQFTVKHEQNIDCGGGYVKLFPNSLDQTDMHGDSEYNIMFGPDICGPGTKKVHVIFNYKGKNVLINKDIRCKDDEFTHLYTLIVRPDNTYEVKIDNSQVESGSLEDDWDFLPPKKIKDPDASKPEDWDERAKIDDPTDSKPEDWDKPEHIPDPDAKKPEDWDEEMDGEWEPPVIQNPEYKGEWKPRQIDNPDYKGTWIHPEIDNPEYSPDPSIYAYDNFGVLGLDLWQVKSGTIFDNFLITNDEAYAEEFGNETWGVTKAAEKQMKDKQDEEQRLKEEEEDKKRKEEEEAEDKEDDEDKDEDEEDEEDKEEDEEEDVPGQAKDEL
Excerpt: To determine whether 65–78*0404 [SEQ ID NO: 28]-conjugated peptides bind these proteins directly, purified recombinant products were used. […] Shared epitope-containing peptides, 65–79*0401-[SEQ ID NO: 5] and 65–79*0404-[SEQ ID NO: 10], as well as a control peptide 65–79*0402-[SEQ ID NO: 7] were immobilized on different channels in a Biacore® sensor chip CM5 and purified recombinant calreticulin was applied in the flow phase.

[3] = test system: Total cellular protein extracts; assay: Peptide affinity chromatography of total cellular protein extracts; type: binding; conditions: total cellular protein extracts loaded
Excerpt: Total cellular protein extracts were loaded onto columns of Sepharose beads, conjugated with either shared epitope-containing peptide 65–78*0404 [SEQ ID NO: 28] or the control peptide 65–78*0402 [SEQ ID NO: 8]. Bound proteins were eluted at low pH. […] 11 sequenced bands matched intracellular proteins, and only two sequences matched previously identified cell surface proteins: heat shock protein 60 (HSP60) and calreticulin. Both calreticulin and HSP60 are chaperones, with strong tendency to form hetero-complexes.

[4] = molecular target: T2, human A2B adenosine receptor (Homo sapiens, UniProt P29275); assay: Comet assay DNA repair in HEK293/A2b transfectants; type: cell-based; conditions: 20 min pretreatment, various doses
T2 construct: expressed in transfected cells; provided by Joel Linden
T2 sequence (P29275 1-332): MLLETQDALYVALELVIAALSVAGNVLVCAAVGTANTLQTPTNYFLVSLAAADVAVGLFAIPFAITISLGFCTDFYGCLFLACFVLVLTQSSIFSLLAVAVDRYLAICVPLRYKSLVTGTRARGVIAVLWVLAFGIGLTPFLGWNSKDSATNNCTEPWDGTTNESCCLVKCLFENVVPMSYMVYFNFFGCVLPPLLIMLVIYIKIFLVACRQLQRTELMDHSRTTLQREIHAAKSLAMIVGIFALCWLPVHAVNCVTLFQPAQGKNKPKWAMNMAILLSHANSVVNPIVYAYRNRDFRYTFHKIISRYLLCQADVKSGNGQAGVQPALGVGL
Protocol: as §1
(§3) Human embryonic kidney 293 cells (HEK 293) transfected with adenosine receptors were provided by Joel Linden. […]

[5] = molecular target: T3, human A2A adenosine receptor (Homo sapiens, UniProt P29274); assay: Comet assay DNA repair in HEK293/A2a transfectants; type: cell-based; conditions: 20 min pretreatment, various doses
T3 construct: expressed in transfected cells; provided by Joel Linden
T3 sequence (P29274 whole entry): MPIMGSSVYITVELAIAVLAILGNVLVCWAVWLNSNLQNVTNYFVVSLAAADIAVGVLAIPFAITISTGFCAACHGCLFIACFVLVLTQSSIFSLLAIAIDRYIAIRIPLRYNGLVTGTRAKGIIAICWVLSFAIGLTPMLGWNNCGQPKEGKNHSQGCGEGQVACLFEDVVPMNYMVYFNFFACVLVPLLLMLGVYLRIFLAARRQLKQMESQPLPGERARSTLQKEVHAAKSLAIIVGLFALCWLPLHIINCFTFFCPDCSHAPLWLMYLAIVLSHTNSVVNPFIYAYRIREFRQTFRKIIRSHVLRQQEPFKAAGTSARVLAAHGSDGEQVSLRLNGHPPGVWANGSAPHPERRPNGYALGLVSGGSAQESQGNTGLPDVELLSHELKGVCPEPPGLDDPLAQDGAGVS
Protocol: as §1, §3

Protein kinase A (PKA) = assay: PKA activity in M1 cells after 2CA; type: cell-based, human; conditions: M1 cells preincubated with peptide-conjugated beads, 10 μM 2CA
Protocol: Protein kinase A (PKA) was measured using the Life Technologies™ Protein Kinase A (cAMP-dependent Protein Kinase) Assay System (Cat. No. 13128-012). The basis of the assay system is the use of a heptapeptide substrate and a 17-amino acid inhibitor peptide (which is valuable for proving PKA-specific protein kinase activity). Four assay conditions per experimental condition are recommended by the manufacturer (+/− inhibitor and +/− cAMP) to determine total PKA-specific kinase activity and proportion of PKA activated in the cells or tissue of interest. Briefly, the four parallel assay conditions are set up for each of the four assay conditions for a given cell or tissue sample, according to the manufacturer's instructions. Substrate and [γ-^32P]ATP (3000–6000 Ci/mmol stock solution) are then added to each tube, and incubated according to the manufacturer's instructions. Following the incubation period, a sample from each tube is spotted onto a […] disc, which is the acid washed prior to scintillation counting (all according to the manufacturer's instructions). Activity can then be determined as described by the manufacturer of the kit.
B.) PKA activity was determined in M1 cells preincubated with peptide-conjugated beads [Bead*0401, SEQ ID NO: 6; Bead*0402, SEQ ID NO: 8], at different time points following treatment with 10 μM 2CA as above.

M1 cells = assay: Intracellular cAMP level (enzyme immunoassay) in M1 cells after 2CA; type: cell-based, human; conditions: M1 cells preincubated 10 min with peptide-conjugated beads, 10 or 100 μM 2CA
Protocol: cAMP was determined by using an Amersham Pharmacia Biotech cAMP enzymeimmunoassay (EIA) system (code RPN 225). The reagents are prepared as described by the manufacturer (lysis reagents 1 and 2, the standard for the non-acetylation assay, the anti-cAMP antiserum, the cAMP peroxidase conjugate and wash buffer). […] Samples are added, followed by the antiserum solution. Following the recommended incubation, cAMP-peroxidase conjugate is added and incubated according to the recommended protocol. Each well is then aspirated and washed, and enzyme substrate is added and incubated. The results can then be read at 630 nm or at 450 nm (depending on the time of incubation and method of stopping the reaction), again according to the manufacturer's protocol.
A.) cAMP levels were assayed in M1 cells that were preincubated for 10 minutes with peptide-conjugated beads [Bead*0401, SEQ ID NO:6; Bead*0402, SEQ ID NO: 8], and intracellular cAMP level changes in response to stimulation with either 10 μM (FIG. 10A, top) or 100 μM (FIG. 10A, bottom) of 2CA were determined at different time points. cAMP levels were measured using a commercial enzyme immunoassay kit from Pharmacia. Results are expressed as fold increase of cAMP above baseline levels.

## KDLLEQKRAAVDTYC [65–79*0401, synthetic peptide corresponding to amino acids 65–79 of the β chain encoded by the HLA-DRB*0401 allele]
[1]
  Inhibition of cAMP-mediated (2CA-induced) DNA repair induction: inhibited cAMP-mediated DNA repair induction
Mouse cells
  Inhibition of cAMP-mediated DNA repair induction: inhibited cAMP-mediated DNA repair induction
[2]
  Calreticulin binding compared to control peptide 65–79*0402: markedly higher calreticulin binding

## KDILEDERAAVDTYC [65–79*0402, control peptide, amino acids 65–79 of the β chain encoded by the HLA-DRB*0402 allele]
[3]
  Protein binding: distinct bands in low pH eluates of peptide-conjugated Sepharose column: no protein binding was detected

## Nc1nc(Cl)nc2c1ncn2[C@@H]1O[C@H](CO)[C@@H](O)[C@H]1O [2CA, 2-chloroadenosine]
[4]
  2CA-induced DNA repair signal transduced: transduced the signal
[1]; M1 cells stimulated 20 min with various concentrations before 100 μM H2O2
  DNA repair triggered: triggered in all cases DNA repair
[5]
  2CA-induced DNA repair signal transduced: transduced the signal

## Bead*0401: Sepharose beads chemically conjugated to 14-mer peptide, residues 65–78 of DRβ*0401 chain [SEQ ID NO: 6] (KDLLEQKRAAVDTY; also: conjugated to Sepharose beads)
[1]; M1 cells preincubated for various times with peptide-conjugated beads
  Block of cAMP-mediated (2CA-induced) DNA repair by Sepharose bead-conjugated peptide: blocked cAMP-mediated DNA repair
Protein kinase A (PKA)
  PKA activation following 2CA: failed to increase cAMP levels or activate PKA
M1 cells
  cAMP level response to 2CA: failed to increase cAMP levels

## KDLLEQRRAAVDTYC [65–79*0404, synthetic peptide corresponding to amino acids 65–79 of the β chain encoded by the HLA-DRB*0404 allele]
[1]
  Inhibition of cAMP-mediated (2CA-induced) DNA repair induction: inhibited cAMP-mediated DNA repair induction
Mouse cells
  Inhibition of cAMP-mediated DNA repair induction: inhibited cAMP-mediated DNA repair induction
[2]
  Calreticulin binding compared to control peptide 65–79*0402: markedly higher calreticulin binding
